What was measured:
[1] = molecular target: Serine/threonine-protein kinase DCLK2 (Homo sapiens) (UniProt Q8N568); settings: Compound concentration 1000.0 nM
[2] = molecular target: Alpha-1A adrenergic receptor (Homo sapiens) (UniProt P35348); settings: Compound concentration 10.0 uM
[3] = molecular target: Serine/threonine-protein kinase 3 (Homo sapiens) (UniProt Q13188); settings: Compound concentration 1000.0 nM
[4] = molecular target: Inhibitor of nuclear factor kappa-B kinase subunit epsilon (Homo sapiens) (UniProt Q14164); settings: Compound concentration 1000.0 nM
[5] = molecular target: Serine/threonine-protein kinase Sgk3 (Homo sapiens) (UniProt Q96BR1); settings: Compound concentration 1000.0 nM
Sequence of Serine/threonine-protein kinase Sgk3 (Homo sapiens) (Q96BR1 whole entry): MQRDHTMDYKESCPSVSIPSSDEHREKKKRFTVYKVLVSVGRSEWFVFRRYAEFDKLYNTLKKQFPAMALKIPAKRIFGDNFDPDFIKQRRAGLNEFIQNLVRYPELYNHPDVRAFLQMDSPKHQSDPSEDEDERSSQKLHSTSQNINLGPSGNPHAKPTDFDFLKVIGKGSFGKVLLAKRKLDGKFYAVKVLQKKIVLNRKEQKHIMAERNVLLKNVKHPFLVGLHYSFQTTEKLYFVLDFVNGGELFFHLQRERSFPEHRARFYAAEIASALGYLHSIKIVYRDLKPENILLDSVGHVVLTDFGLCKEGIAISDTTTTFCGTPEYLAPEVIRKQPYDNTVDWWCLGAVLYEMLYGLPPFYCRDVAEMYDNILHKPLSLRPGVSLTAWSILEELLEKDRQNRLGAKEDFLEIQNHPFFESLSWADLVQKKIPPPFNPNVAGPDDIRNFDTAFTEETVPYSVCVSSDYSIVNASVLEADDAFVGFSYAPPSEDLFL

[6] = molecular target: Serine/threonine-protein kinase SIK3 (Homo sapiens) (UniProt Q9Y2K2); settings: Compound concentration 1000.0 nM
[7] = molecular target: Serine/threonine-protein kinase 26 (Homo sapiens) (UniProt Q9P289); settings: Compound concentration 1000.0 nM
[8] = molecular target: Dual specificity mitogen-activated protein kinase kinase 5 (Homo sapiens) (UniProt Q13163); settings: Compound concentration 1000.0 nM
[9] = molecular target: Serine/threonine-protein kinase tousled-like 2 (Homo sapiens) (UniProt Q86UE8); settings: Compound concentration 1000.0 nM
Sequence of Serine/threonine-protein kinase tousled-like 2 (Homo sapiens) (Q86UE8 whole entry, looked up): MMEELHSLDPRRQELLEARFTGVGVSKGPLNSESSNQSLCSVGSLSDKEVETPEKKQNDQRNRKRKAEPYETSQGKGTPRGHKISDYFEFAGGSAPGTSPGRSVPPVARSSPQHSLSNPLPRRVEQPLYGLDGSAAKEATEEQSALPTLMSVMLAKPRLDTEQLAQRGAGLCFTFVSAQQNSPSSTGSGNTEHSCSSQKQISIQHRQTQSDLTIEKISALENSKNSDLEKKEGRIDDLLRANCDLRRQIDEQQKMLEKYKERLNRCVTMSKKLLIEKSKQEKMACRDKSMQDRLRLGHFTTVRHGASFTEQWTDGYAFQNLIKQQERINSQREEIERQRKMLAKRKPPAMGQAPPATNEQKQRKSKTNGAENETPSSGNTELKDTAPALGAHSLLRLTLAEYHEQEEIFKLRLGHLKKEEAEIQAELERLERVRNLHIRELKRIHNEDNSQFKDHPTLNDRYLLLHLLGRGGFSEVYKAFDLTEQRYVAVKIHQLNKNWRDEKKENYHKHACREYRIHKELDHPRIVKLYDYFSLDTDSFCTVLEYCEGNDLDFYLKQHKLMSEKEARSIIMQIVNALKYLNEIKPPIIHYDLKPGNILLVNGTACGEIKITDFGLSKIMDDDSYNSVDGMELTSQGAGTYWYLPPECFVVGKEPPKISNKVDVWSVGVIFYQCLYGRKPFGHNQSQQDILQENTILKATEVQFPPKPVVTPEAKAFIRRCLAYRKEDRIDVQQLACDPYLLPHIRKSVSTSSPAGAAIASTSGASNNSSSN

[10] = molecular target: Calcium/calmodulin-dependent protein kinase type 1G (Homo sapiens) (UniProt Q96NX5); settings: Compound concentration 1000.0 nM
[11] = molecular target: Tyrosine-protein kinase JAK1 (Homo sapiens) (UniProt P23458); settings: Compound concentration 1000.0 nM
[12] = tested on: Receptor-type tyrosine-protein kinase FLT3 (Homo sapiens), P36888 [D835Y]; settings: Compound concentration 1000.0 nM
[13] = molecular target: Interleukin-1 receptor-associated kinase 1 (Homo sapiens) (UniProt P51617); settings: Compound concentration 1000.0 nM
[14] = molecular target: Tyrosine-protein kinase Blk (Homo sapiens) (UniProt P51451); settings: Compound concentration 1000.0 nM
[15] = molecular target: MAP kinase-interacting serine/threonine-protein kinase 1 (Homo sapiens) (UniProt Q9BUB5); settings: Compound concentration 1000.0 nM
[16] = molecular target: RAC-gamma serine/threonine-protein kinase (Homo sapiens) (UniProt Q9Y243); settings: Compound concentration 1000.0 nM
[17] = molecular target: Serine/threonine-protein kinase MRCK alpha (Homo sapiens) (UniProt Q5VT25); settings: Compound concentration 1000.0 nM
[18] = molecular target: Mitogen-activated protein kinase 10 (Homo sapiens) (UniProt P53779); settings: Compound concentration 1000.0 nM
[19] = tested on: Epidermal growth factor receptor (Homo sapiens), P00533 [UNDEFINED MUTATION]; settings: Compound concentration 1000.0 nM
Sequence of Epidermal growth factor receptor (Homo sapiens), P00533 [UNDEFINED MUTATION] (P00533 whole entry, looked up, change not shown): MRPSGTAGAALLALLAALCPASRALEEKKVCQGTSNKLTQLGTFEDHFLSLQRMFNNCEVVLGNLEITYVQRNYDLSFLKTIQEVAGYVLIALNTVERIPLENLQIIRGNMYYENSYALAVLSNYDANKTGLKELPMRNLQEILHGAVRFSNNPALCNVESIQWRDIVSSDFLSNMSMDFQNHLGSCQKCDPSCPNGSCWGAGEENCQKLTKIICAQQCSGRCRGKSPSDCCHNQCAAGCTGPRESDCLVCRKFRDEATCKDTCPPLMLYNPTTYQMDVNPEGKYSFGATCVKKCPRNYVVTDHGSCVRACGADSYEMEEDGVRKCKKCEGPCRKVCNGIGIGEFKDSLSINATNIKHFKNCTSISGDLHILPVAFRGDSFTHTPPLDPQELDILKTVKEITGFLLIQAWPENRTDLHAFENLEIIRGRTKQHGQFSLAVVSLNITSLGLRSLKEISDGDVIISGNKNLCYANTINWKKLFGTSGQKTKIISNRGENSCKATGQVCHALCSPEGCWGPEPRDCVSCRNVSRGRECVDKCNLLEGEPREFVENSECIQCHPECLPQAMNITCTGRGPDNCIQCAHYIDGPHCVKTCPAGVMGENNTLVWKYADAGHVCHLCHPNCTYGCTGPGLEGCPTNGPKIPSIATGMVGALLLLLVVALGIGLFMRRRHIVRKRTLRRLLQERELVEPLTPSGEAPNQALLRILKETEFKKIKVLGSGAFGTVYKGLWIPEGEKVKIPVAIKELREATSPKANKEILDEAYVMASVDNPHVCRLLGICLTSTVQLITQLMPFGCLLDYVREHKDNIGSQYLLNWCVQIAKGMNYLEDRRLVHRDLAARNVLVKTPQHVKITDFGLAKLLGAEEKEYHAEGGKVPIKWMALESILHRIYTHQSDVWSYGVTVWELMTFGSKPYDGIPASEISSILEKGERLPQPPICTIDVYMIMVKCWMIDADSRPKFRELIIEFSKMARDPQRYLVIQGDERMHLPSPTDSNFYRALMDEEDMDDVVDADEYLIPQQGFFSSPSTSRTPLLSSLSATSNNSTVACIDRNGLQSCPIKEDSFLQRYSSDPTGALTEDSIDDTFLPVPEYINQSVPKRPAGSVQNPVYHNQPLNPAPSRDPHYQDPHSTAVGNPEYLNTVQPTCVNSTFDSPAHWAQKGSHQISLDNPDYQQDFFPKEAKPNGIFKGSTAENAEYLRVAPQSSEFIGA

[20] = molecular target: Mitogen-activated protein kinase 3 (Homo sapiens) (UniProt P27361); settings: Compound concentration 1000.0 nM
[21] = tested on: Phosphatidylinositol 4,5-bisphosphate 3-kinase catalytic subunit alpha isoform (Homo sapiens), P42336 [I800L]; settings: Compound concentration 1000.0 nM
[22] = molecular target: Glycogen synthase kinase-3 beta (Homo sapiens) (UniProt P49841); settings: Compound concentration 1000.0 nM
Sequence of Glycogen synthase kinase-3 beta (Homo sapiens) (P49841 whole entry, looked up): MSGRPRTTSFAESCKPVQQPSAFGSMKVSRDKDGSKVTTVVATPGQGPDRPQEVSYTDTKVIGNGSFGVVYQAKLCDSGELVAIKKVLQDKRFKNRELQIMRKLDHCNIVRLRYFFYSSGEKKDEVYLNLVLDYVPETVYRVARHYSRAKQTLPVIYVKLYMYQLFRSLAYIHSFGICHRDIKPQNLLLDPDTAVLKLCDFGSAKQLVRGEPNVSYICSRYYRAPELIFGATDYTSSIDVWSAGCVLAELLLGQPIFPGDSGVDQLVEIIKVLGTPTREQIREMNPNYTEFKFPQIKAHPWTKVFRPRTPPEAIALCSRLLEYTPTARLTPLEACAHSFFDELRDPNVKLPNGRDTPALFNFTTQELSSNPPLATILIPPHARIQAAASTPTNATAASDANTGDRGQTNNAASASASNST

[23] = molecular target: Platelet-derived growth factor receptor beta (Homo sapiens) (UniProt P09619); settings: Compound concentration 1000.0 nM
[24] = molecular target: Mitogen-activated protein kinase 4 (Homo sapiens) (UniProt P31152); settings: Compound concentration 1000.0 nM
[25] = molecular target: Receptor tyrosine-protein kinase erbB-3 (Homo sapiens) (UniProt P21860); settings: Compound concentration 1000.0 nM
[26] = tested on: Epidermal growth factor receptor (Homo sapiens), P00533 [UNDEFINED MUTATION]; settings: Compound concentration 1000.0 nM; remark: listed apart in the source
[27] = molecular target: Cyclin-dependent kinase 11A (Homo sapiens) (UniProt Q9UQ88); settings: Compound concentration 1000.0 nM
[28] = tested on: Tyrosine-protein kinase ABL1 (Homo sapiens), P00519 [H396P]; settings: Compound concentration 1000.0 nM
[29] = molecular target: Serine/threonine-protein kinase WNK3 (Homo sapiens) (UniProt Q9BYP7); settings: Compound concentration 1000.0 nM
[30] = molecular target: High affinity nerve growth factor receptor (Homo sapiens) (UniProt P04629); settings: Compound concentration 1000.0 nM
[31] = molecular target: Tyrosine-protein kinase Lyn (Homo sapiens) (UniProt P07948); settings: Compound concentration 1000.0 nM
[32] = molecular target: Tyrosine-protein kinase receptor UFO (Homo sapiens) (UniProt P30530); settings: Compound concentration 1000.0 nM
[33] = molecular target: 5-hydroxytryptamine receptor 7 (Homo sapiens) (UniProt P34969); settings: Compound concentration 10.0 uM
Sequence of 5-hydroxytryptamine receptor 7 (Homo sapiens) (P34969 whole entry): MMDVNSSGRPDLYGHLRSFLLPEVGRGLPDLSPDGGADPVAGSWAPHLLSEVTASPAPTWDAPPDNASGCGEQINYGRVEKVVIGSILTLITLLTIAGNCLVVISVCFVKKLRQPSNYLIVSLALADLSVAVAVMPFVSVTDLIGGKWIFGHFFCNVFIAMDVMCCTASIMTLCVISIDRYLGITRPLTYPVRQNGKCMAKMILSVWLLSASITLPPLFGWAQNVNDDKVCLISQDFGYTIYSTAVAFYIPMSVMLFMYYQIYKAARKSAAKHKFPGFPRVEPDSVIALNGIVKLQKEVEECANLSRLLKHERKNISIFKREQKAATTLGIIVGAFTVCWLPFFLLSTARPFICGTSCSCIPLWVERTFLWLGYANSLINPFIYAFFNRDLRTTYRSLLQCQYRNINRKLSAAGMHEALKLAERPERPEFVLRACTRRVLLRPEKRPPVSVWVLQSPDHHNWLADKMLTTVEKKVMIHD

[34] = tested on: Tyrosine-protein kinase ABL1 (Homo sapiens), P00519 [Q252H]; settings: Compound concentration 1000.0 nM
[35] = molecular target: Phosphatidylinositol 3-kinase catalytic subunit type 3 (Homo sapiens) (UniProt Q8NEB9); settings: Compound concentration 1000.0 nM
[36] = molecular target: Serine/threonine-protein kinase pim-1 (Homo sapiens) (UniProt P11309); settings: Compound concentration 1000.0 nM
[37] = molecular target: Serine/threonine-protein kinase 25 (Homo sapiens) (UniProt O00506); settings: Compound concentration 1000.0 nM
[38] = molecular target: Serine/threonine-protein kinase Nek3 (Homo sapiens) (UniProt P51956); settings: Compound concentration 1000.0 nM
[39] = molecular target: Serine/threonine-protein kinase 32B (Homo sapiens) (UniProt Q9NY57); settings: Compound concentration 1000.0 nM
[40] = molecular target: Cyclin-dependent kinase 2 (Homo sapiens) (UniProt P24941); settings: Compound concentration 1000.0 nM
[41] = molecular target: Ephrin type-A receptor 4 (Homo sapiens) (UniProt P54764); settings: Compound concentration 1000.0 nM
Sequence of Ephrin type-A receptor 4 (Homo sapiens) (P54764 whole entry): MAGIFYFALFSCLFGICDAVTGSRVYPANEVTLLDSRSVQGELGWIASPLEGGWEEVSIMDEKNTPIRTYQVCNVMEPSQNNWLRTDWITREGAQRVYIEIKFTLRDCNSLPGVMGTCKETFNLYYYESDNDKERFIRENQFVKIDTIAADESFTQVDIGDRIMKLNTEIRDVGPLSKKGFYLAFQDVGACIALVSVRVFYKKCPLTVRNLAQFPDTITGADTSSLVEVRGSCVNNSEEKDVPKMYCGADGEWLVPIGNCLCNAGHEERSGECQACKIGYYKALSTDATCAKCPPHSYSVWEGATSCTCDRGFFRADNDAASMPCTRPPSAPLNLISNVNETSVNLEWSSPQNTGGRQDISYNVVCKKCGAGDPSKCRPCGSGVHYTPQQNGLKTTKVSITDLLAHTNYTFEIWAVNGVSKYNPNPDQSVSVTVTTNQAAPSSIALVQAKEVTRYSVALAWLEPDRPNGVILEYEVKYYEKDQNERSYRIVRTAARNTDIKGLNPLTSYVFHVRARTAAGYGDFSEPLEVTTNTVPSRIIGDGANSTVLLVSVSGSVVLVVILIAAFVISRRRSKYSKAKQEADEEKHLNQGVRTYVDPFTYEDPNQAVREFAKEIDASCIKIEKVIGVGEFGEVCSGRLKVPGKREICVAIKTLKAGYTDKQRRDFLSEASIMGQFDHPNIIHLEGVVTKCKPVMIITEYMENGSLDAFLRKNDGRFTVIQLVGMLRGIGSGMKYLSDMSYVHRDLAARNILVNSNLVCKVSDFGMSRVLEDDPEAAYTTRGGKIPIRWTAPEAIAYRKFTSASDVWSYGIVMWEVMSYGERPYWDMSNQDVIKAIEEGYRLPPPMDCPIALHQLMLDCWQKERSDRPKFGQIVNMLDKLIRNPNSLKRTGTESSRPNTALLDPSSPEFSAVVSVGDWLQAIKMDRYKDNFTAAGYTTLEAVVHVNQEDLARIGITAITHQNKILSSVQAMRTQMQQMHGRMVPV

[42] = molecular target: Protein-tyrosine kinase 2-beta (Homo sapiens) (UniProt Q14289); settings: Compound concentration 1000.0 nM
[43] = molecular target: Ephrin type-B receptor 2 (Homo sapiens) (UniProt P29323); settings: Compound concentration 1000.0 nM
[44] = molecular target: Alpha-2C adrenergic receptor (Homo sapiens) (UniProt P18825); settings: Compound concentration 10.0 uM
[45] = molecular target: Delta-type opioid receptor (Homo sapiens) (UniProt P41143); settings: Compound concentration 10.0 uM

Sequence of Alpha-1A adrenergic receptor (Homo sapiens) (P35348 whole entry): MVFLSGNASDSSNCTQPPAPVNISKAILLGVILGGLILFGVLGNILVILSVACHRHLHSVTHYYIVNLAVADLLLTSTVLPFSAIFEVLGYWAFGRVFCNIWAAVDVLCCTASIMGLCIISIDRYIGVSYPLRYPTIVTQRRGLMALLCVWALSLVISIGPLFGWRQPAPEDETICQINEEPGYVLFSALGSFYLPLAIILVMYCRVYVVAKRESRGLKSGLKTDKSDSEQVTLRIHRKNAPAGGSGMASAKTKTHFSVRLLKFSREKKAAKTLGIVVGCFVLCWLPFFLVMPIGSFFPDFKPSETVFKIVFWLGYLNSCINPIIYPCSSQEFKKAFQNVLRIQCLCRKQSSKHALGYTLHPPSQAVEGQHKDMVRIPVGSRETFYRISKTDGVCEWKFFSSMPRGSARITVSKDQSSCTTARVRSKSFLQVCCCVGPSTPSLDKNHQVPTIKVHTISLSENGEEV

## Cn1cncc1[C@@](O)(COc1ccc(C#N)cc1-c1ccc(OC(F)(F)F)cc1)c1ccc(C#N)cc1 [A-108]
[1]
  residual activity: 100%
[2]
  inhibition: 4.51%
[3]
  residual activity: 95%
[4]
  residual activity: 100%
[5]
  residual activity: 100%
[6]
  residual activity: 97%
[7]
  residual activity: 99%
[8]
  residual activity: 88%
[9]
  residual activity: 97%
[10]
  residual activity: 85%
[11]
  residual activity: 92%
[12]
  residual activity: 78%
[13]
  residual activity: 73%
[14]
  residual activity: 71%
[15]
  residual activity: 81%
[16]
  residual activity: 100%
[17]
  residual activity: 81%
[18]
  residual activity: 75%
[19]
  residual activity: 100%
[20]
  residual activity: 83%
[21]
  residual activity: 84%
[22]
  residual activity: 100%
[23]
  residual activity: 97%
[24]
  residual activity: 90%
[25]
  residual activity: 89%
[26]
  residual activity: 100%
[27]
  residual activity: 100%
[28]
  residual activity: 92%
[29]
  residual activity: 100%
[30]
  residual activity: 91%
[31]
  residual activity: 100%
[32]
  residual activity: 100%
[33]
  inhibition: 15%
[34]
  residual activity: 76%
[35]
  residual activity: 100%
[36]
  residual activity: 100%
[37]
  residual activity: 95%
[38]
  residual activity: 87%
[39]
  residual activity: 97%
[40]
  residual activity: 89%
[41]
  residual activity: 12%
[42]
  residual activity: 100%
[43]
  residual activity: 100%
[44]
  inhibition: 8.51%
[45]
  inhibition: 2.4%

## Cn1cncc1[C@](O)(COc1ccc(C#N)cc1-c1ccc(OC(F)(F)F)cc1)c1ccc(C#N)cc1 [ABT-100]
[1]
  residual activity: 98%
[2]
  inhibition: -7.75%
[3]
  residual activity: 77%
[4]
  residual activity: 100%
[5]
  residual activity: 100%
[6]
  residual activity: 67%
[7]
  residual activity: 100%
[8]
  residual activity: 83%
[9]
  residual activity: 100%
[10]
  residual activity: 96%
[11]
  residual activity: 70%
[12]
  residual activity: 95%
[13]
  residual activity: 83%
[14]
  residual activity: 90%
[15]
  residual activity: 68%
[16]
  residual activity: 100%
[17]
  residual activity: 78%
[18]
  residual activity: 70%
[19]
  residual activity: 76%
[20]
  residual activity: 90%
[21]
  residual activity: 85%
[22]
  residual activity: 93%
[23]
  residual activity: 100%
[24]
  residual activity: 100%
[25]
  residual activity: 87%
[26]
  residual activity: 93%
[27]
  residual activity: 100%
[28]
  residual activity: 100%
[29]
  residual activity: 100%
[30]
  residual activity: 91%
[31]
  residual activity: 90%
[32]
  residual activity: 100%
[33]
  inhibition: 9.15%
[34]
  residual activity: 96%
[35]
  residual activity: 91%
[36]
  residual activity: 96%
[37]
  residual activity: 91%
[38]
  residual activity: 96%
[39]
  residual activity: 100%
[40]
  residual activity: 95%
[41]
  residual activity: 100%
[42]
  residual activity: 62%
[43]
  residual activity: 94%
[44]
  inhibition: 5%
[45]
  inhibition: -0.182%

— ChEMBL document CHEMBL4507257, “Data for DCP probe ABT-100” (2021)
